Measured values published in PubChem BioAssay AID328 (DTP/NCI, 2004).
“And” between values parts separate entries of the source, which are not always exact repeats. Equal values may be shown once. Inconclusive results and toxic doses are left out.

Test system: BDF1 mice, P388 leukemia ip, median survival T/C
Assay: NCI In Vivo Anticancer Drug Screen. Data for tumor model P388 Leukemia (intraperitoneal) in B6D2F1 (BDF1) mice
Settings: endpoint: median survival time, vehicle: saline, higher = longer survival
Outline: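 Each value expresses how treatment altered survival: treated-mouse outcome over vehicle-mouse outcome, both groups bearing the transplanted tumour.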

Question: `Nc1ncnc2c1ccn2C1OC(CO)C(O)C1O` (stereo not drawn) was tested. Which T/C (dose: 0.19 mg/kg/injection, schedule: Q03DX005 (ip)) did it give?
Answer: 100 % of control

Question: And the T/C (dose: 0.25 mg/kg/injection, schedule: Q02DX005 (ip))?
Answer: 108 % of control

Question: What about the T/C (dose: 0.25 mg/kg/injection, schedule: Q#A X002 (ip)) of the same compound?
Answer: 108 % of control

Question: And the T/C (dose: 0.31 mg/kg/injection, schedule: Q01DX010 (ip))?
Answer: 122 % of control

Question: What about the T/C (dose: 0.38 mg/kg/injection, schedule: Q03DX005 (ip)) of the same compound?
Answer: 104 % of control

Question: What about the T/C (dose: 0.5 mg/kg/injection, schedule: Q01DX006 (iv)) of the same compound?
Answer: 95 % of control

Question: What about the T/C (dose: 0.5 mg/kg/injection, schedule: Q01DX010 (oral)) of the same compound?
Answer: 109 % of control

Question: What about the T/C (dose: 0.5 mg/kg/injection, schedule: Q02DX004 (im)) of the same compound?
Answer: 104 % of control

Question: What about the T/C (dose: 0.5 mg/kg/injection, schedule: Q02DX005 (ip)) of the same compound?
Answer: 112 % of control

Question: And the T/C (dose: 0.5 mg/kg/injection, schedule: Q04DX003 (ip))?
Answer: 112 % of control

Question: What about the T/C (dose: 0.5 mg/kg/injection, schedule: Q07DX002 (ip)) of the same compound?
Answer: 112 % of control

Question: What about the T/C (dose: 0.5 mg/kg/injection, schedule: Q#A X002 (ip)) of the same compound?
Answer: 112 % of control

Question: And the T/C (dose: 0.75 mg/kg/injection, schedule: Q03DX005 (ip))?
Answer: 118 % of control

Question: And the T/C (dose: 1.0 mg/kg/injection, schedule: Q01DX001 (ip))?
Answer: 108 % of control

Question: And the T/C (dose: 1.0 mg/kg/injection, schedule: Q01DX006 (iv))?
Answer: 95 % of control

Question: What about the T/C (dose: 1.0 mg/kg/injection, schedule: Q01DX010 (ip)) of the same compound?
Answer: 150 % of control

Question: What about the T/C (dose: 1.0 mg/kg/injection, schedule: Q01DX010 (oral)) of the same compound?
Answer: 100 % of control

Question: And the T/C (dose: 1.0 mg/kg/injection, schedule: Q01DX010 (sc))?
Answer: 91 % of control and 104 % of control

Question: What about the T/C (dose: 1.0 mg/kg/injection, schedule: Q02DX004 (im)) of the same compound?
Answer: 91 % of control

Question: What about the T/C (dose: 1.0 mg/kg/injection, schedule: Q04DX003 (ip)) of the same compound?
Answer: 116 % of control

Question: What about the T/C (dose: 1.0 mg/kg/injection, schedule: Q07DX002 (ip)) of the same compound?
Answer: 116 % of control

Question: And the T/C (dose: 1.5 mg/kg/injection, schedule: Q03DX005 (ip))?
Answer: 154 % of control

Question: And the T/C (dose: 1.5 mg/kg/injection, schedule: Q03DX010 (ip))?
Answer: 172 % of control

Question: And the T/C (dose: 1.75 mg/kg/injection, schedule: Q07DX002 (ip))?
Answer: 150 % of control

Question: What about the T/C (dose: 2.0 mg/kg/injection, schedule: Q01DX001 (ip)) of the same compound?
Answer: 116 % of control

Question: What about the T/C (dose: 2.0 mg/kg/injection, schedule: Q01DX006 (iv)) of the same compound?
Answer: 91 % of control

Question: What about the T/C (dose: 2.0 mg/kg/injection, schedule: Q01DX010 (im)) of the same compound?
Answer: 104 % of control

Question: What about the T/C (dose: 2.0 mg/kg/injection, schedule: Q01DX010 (ip)) of the same compound?
Answer: 108 % of control

Question: What about the T/C (dose: 2.0 mg/kg/injection, schedule: Q01DX010 (oral)) of the same compound?
Answer: 100 % of control

Question: What about the T/C (dose: 2.0 mg/kg/injection, schedule: Q01DX010 (sc)) of the same compound?
Answer: 100 % of control and 113 % of control

Question: What about the T/C (dose: 2.0 mg/kg/injection, schedule: Q02DX004 (im)) of the same compound?
Answer: 100 % of control

Question: And the T/C (dose: 2.0 mg/kg/injection, schedule: Q04DX003 (ip))?
Answer: 120 % of control

Question: And the T/C (dose: 2.0 mg/kg/injection, schedule: Q07DX002 (ip))?
Answer: 116 % of control

Question: What about the T/C (dose: 2.0 mg/kg/injection, schedule: Q#A X002 (ip)) of the same compound?
Answer: 95 % of control

Question: And the T/C (dose: 3.0 mg/kg/injection, schedule: Q03DX010 (ip))?
Answer: 159 % of control

Question: And the T/C (dose: 4.0 mg/kg/injection, schedule: Q01DX010 (im))?
Answer: 104 % of control

Question: What about the T/C (dose: 4.0 mg/kg/injection, schedule: Q01DX010 (sc)) of the same compound?
Answer: 112 % of control and 113 % of control

Question: What about the T/C (dose: 4.0 mg/kg/injection, schedule: Q02DX004 (im)) of the same compound?
Answer: 100 % of control

Question: And the T/C (dose: 4.0 mg/kg/injection, schedule: Q04DX003 (ip))?
Answer: 100 % of control

Question: And the T/C (dose: 4.0 mg/kg/injection, schedule: Q07DX002 (ip))?
Answer: 116 % of control

Question: And the T/C (dose: 7.0 mg/kg/injection, schedule: Q01DX001 (ip))?
Answer: 150 % of control

Question: And the T/C (dose: 8.0 mg/kg/injection, schedule: Q01DX001 (oral))?
Answer: 92 % of control

Question: And the T/C (dose: 8.0 mg/kg/injection, schedule: Q01DX010 (im))?
Answer: 150 % of control

Question: What about the T/C (dose: 8.0 mg/kg/injection, schedule: Q01DX010 (oral)) of the same compound?
Answer: 91 % of control

Question: And the T/C (dose: 8.0 mg/kg/injection, schedule: Q01DX010 (sc))?
Answer: 118 % of control

Question: What about the T/C (dose: 16.0 mg/kg/injection, schedule: Q01DX001 (oral)) of the same compound?
Answer: 92 % of control

Question: What about the T/C (dose: 28.0 mg/kg/injection, schedule: Q01DX001 (ip)) of the same compound?
Answer: 118 % of control

Question: And the T/C (dose: 31.5 mg/kg/injection, schedule: Q#A X020 (ip))?
Answer: 104 % of control

Question: And the T/C (dose: 62.5 mg/kg/injection, schedule: Q#A X020 (ip))?
Answer: 109 % of control

Question: What about the T/C (dose: 125.0 mg/kg/injection, schedule: Q#A X020 (ip)) of the same compound?
Answer: 118 % of control

Question: What about the T/C (dose: 63.0 micrograms/kg/injection, schedule: Q01DX010 (ip)) of the same compound?
Answer: 109 % of control

Question: And the T/C (dose: 125.0 micrograms/kg/injection, schedule: Q01DX010 (ip))?
Answer: 104 % of control

Question: And the T/C (dose: 250.0 micrograms/kg/injection, schedule: Q01DX010 (ip))?
Answer: 104 % of control
